Results published in patent US20060216342A1, “Micelle delivery system loaded with a pharmaceutical agent” (priority 2003, published 2006).
Blank lines part the entries; values can stand above or below the molecule they belong to.

Tests used:
LLC tumors = test: Inhibition of LLC tumor growth in mice with different taxol preparations; assay type: in vivo; conditions: ca. 100 μg taxol per injection, two injections, twenty days after first injection, untreated 2.00±0.60 g
Protocol: Inhibition of tumor growth with different taxol preparations. Mice with LLC tumors were injected with different taxol formulations on day 10 post inoculation (ca. 100 μg of taxol per animal per injection). On day 5 after the first administration, the injections were repeated. Twenty days after the first injection, the mice were sacrificed; tumors extracted, rinsed twice with saline, wiped, and weighed. There were five mice in each experimental group.

[1] = Encapsulation of tamoxifen into PEG-PE micelles; assay type: physicochemical; conditions: drug/PEG-PE molar ratio 1:1, after 0.22 μm filtration
Protocol: Tamoxifen dissolved in methanol was added to the solution of PEG-PE in chloroform to obtain the drug/PEG-PE molar ratio of 1:1. Organic solvents were evaporated and micelles were formed by shaking the tamoxifen/PE-PEG film obtained in the presence of an aqueous buffer at 50° C. Free tamoxifen was removed by filtration through 0.22 μm filters. Tamoxifen was quantified using the assay procedure for diethylstilbesterol (United States Pharmacopeal Convention, 2000).

[2] = Micelle size by dynamic light scattering and freeze-fracture electron microscopy; assay type: physicochemical; conditions: PEG-PE micelles with vs without tamoxifen
Protocol: When required, 0.5 ml of a 12 μM solution of 2C5 or 2G4 in borate, pH 9.0 was added to 0.5 ml of pNP-PEG-PE-containing micelles with a PEG-PE concentration of 1.5 mM. The mixture was incubated for 3 h at room temperature (RT) and dialyzed against HBS, using cellulose ester membranes with a cut-off size of 300,000 Da (Spectrum Medical Industries, Rancho Dominguez, Calif.). To assess the quantity of the micelle-bound protein, CF-labeled antibody was used. Protein concentration was measured by associated fluorescence at an excitation wavelength of 490 nm and an emission of 520 nm on a F-2000 spectrofluorimeter (Hitachi, Japan). The micelle size was measured by dynamic light scattering using a N4 Plus Submicron Particle System (Coulter Corporation, Miami, Fla.) at PEG-PE concentration of 2-10 mM.
Freeze-fracture electron microscopy. The sample was quenched using the sandwich technique and liquid nitrogen-cooled propane. A cooling rate of 10,000K/sec avoids ice crystal formation and cryofixation-caused artifacts. The fracturing process was carried out in JEOL JED-9000 freeze-etching equipment (Jeol, Peabody, Mass.) and the exposed fracture planes were shadowed with Pt for 30 sec at an angle of 25-35 degrees followed with carbon for 35 sec (2 kV, 60-70 mA, 1×10^−5 Torr). […]

[3] = Incorporation of porphyrin into PEG-PE micelles; assay type: physicochemical
Protocol: Porphyrin dissolved in methanol was added to a solution of PEG-PE in chloroform to obtain various final ratios of components. Organic solvents were removed under vacuum. Micelles were formed by shaking the PEG-PE/porphyrin film obtained in the presence of an aqueous buffer. Excess of porphyrin not incorporated into the micelles was separated by filtration of the micelle suspension through 0.2 μm filter. Concentration of porphyrin in micellar phase was estimated following the fluorescence at the excitation wavelength of […] and the emission wavelength of 674 nm (F635/674) after 100-200-fold dilution of the samples in methanol.

Molecule: CC(=O)O[C@H]1C(=O)[C@@]2(C)[C@H]([C@H](OC(=O)c3ccccc3)[C@]3(O)C[C@H](OC(=O)[C@H](O)[C@@H](NC(=O)c4ccccc4)c4ccccc4)C(C)=C1C3(C)C)[C@]1(OC(C)=O)CO[C@@H]1C[C@@H]2O [free taxol, paclitaxel]
average weight of excised tumors (LLC tumors): 1.58 ± 0.48 g

tamoxifen incorporated into PEG-PE micelles [1]: more than 95%
Molecule: CC/C(=C(\c1ccccc1)c1ccc(OCCN(C)C)cc1)c1ccccc1 [tamoxifen]
effect of drug incorporation on micelle size [2]: does not change the size of the micelles significantly

efficiency of incorporation into micelles ([3]; initial porphyrin/PEG-PE weight ratio of 1/2): about 80%
efficiency of incorporation into micelles ([3]; initial porphyrin/PEG-PE weight ratio of up to 1/5): ~100%
drug/PEG-PE in the resultant micelles ([3]; initial weight ratio of 1/2): 2/5
Molecule: chlorin e6 trimethyl ester [porphyrin]
